One assay relates to C57BL/6 mice. The assay is described as follows: Serum IL-4 and IFNγ after a single i.p. injection. Format: in vivo. The method, then: Serum levels of L-4 and IFNγ after a single injection of DB01-1, DB03-4, or DB03-5 are shown. C57BL/6 mice (11-13 weeks old) were given a single i.p. injection of 4.8 nanomoles of the compounds or phosphate buffered saline (PBS)/vehicle control. Serum cytokine levels were measured 2 and 20 hours later by capture ELISA. Bars show means of three mice, with standard deviation. Note that DB01-1 has nearly identical structure to KRN7000 (C24 fatty acid as compared to C26) and has activity that is indistinguishable from KRN7000 in multiple bioassays. We use DB01-1 as a “KRN7000 mimic” because it has been synthesized by our group and is readily available for our studies, and KRN7000 was unavailable due to license restrictions.
A most intriguing property of KRN7000 analogues is that in some cases they may elicit immune responses that are qualitatively different from those that occur following stimulation with the parent compound. […] This selective activation of IL-4 production by NK T cells was proposed to be the basis for the enhanced therapeutic effects of OCH in the EAE model of central nervous system autoimmune disease. We have observed a similar in vivo effect on the nature of the NK T cell response using several of our ceramide-like glycolipids. […] These responses are similar to those seen for DB01-1, an analogue that is structurally almost identical to KRN7000 (C24 fatty acid instead of C26, otherwise identical) and indistinguishable in terms of its activity in our hands. […] This selective IL-4 induction is virtually identical to that reported for the OCH analogue, and thus illustrates the potential for amino substituted analogues of KRN7000 to induce qualitatively different immunomodulatory effects in vivo. The results reported in FIG. 9 were obtained by measuring serum levels of IL-4 and IFNγ after administering a single injection of […], DB03-4, or DB03-5 to C57BL/6 mice. C57BL/6 mice (11-13 weeks old) were given a single i.p. injection of 4.8 nanomoles of the ceramide-like glycolipids or PBS/vehicle control. Serum cytokine levels were measured 2 and 20 hours later by capture ELISA. Bars show means of three mice, with standard deviation.
For experiments involving in vivo treatment of mice with the ceramide-like glycolipids, the ceramide-like glycolipids were administered by i.p. or i.v. injection in 0.2 ml PBS+0.025% Tween-20, or in vehicle alone. A typical dose is about 4-5 nmoles per animal per injection. Representative references for administering an α-galactosyl ceramide to mice by i.p., i.v. or p.o. routes are S. Sharif et al., Activation of natural killer T cells by alpha-galactosylceramide treatment prevents the onset and recurrence of autoimmune Type 1 diabetes, Nat. Med., Sep. 7, 2001, (9):1057-62 and K. Miyamoto et al., A synthetic glycolipid prevents autoimmune encephalomyelitis by inducing TH2 bias of natural killer T cells, Nature. Oct. 4, 2001, 413(6855):5314.

The next assay has as its system human NKT cell clones. Kind of assay: Human in vitro NKT cell assay system. The following applies: proliferative responses and cytokine secretion. The assay is classed as cell-based. An excerpt: For example, DB03-4 and DB03-5 are active in stimulation of human NKT cell clones in vitro, and elicits proliferative responses and cytokine secretion when evaluated using culture systems previously established in the literature (See, e.g., Spada F M, Sugita M, Watts G F M, Koezuka Y, and Porcelli S A. Low expression but potent antigen presenting function of CD1d on monocyte lineage cells, Eur. J. Immunol., 30:3468-3477 (2000), and Spada F M, Koezuka Y, Porcelli S A, CD1d-restricted recognition of synthetic glycolipid antigens by human NK T cells. J Exp Med; 188:1529-1534 (1998), see also, Lee P T et al., J Clin Invest., 2002 September; 110(6):793-800. […] Acad. Sci. (USA), 102:3383-8 (2005)).

The test system of assay [1] is T cell antigen receptors of human NKT cells. Kind of assay: Glycolipid human CD1d tetramer binding. Conditions: normal blood specimens.
A further assay deals with NK T cells. Kind of assay: NK T cell activation screens (Example, FIG. 5 and Table 1). The following applies: see Example. The assay is classed as cell-based. An excerpt: Using these methods, we produced more than 60 novel amino substituted analogues of KRN7000. These were screened in a functional assay that assessed the ability of the compounds to activate NK T cell hybridomas in the presence of various types of cells expressing CD1d, or in the presence of recombinant CD1d proteins bound to the tissue culture plate surface (FIG. 5).

As to `CCCCC/C=C\C/C=C\CCCCCCCCCC(=O)N[C@@H](COC1OC(CO)C(O)C(O)C1O)[C@H](O)[C@H](O)CCCCCCCCCCCCCC` (some centres unmarked) [DB03-4], in the assay on C57BL/6 mice (20 hours after single i.p. injection of 4.8 nanomoles), the “serum IFNγ response” value was “not seen”. For the same compound, the “serum IL-4 response” value in the assay on C57BL/6 mice (two hours after single i.p. injection of 4.8 nanomoles) is reported as “strong IL-4 response”. Moreover, the “stimulation of human NKT cell clones” value in the assay with human NKT cell clones is “active”. In addition, the “binding of glycolipid human CD1d tetramers to human NKT cells” value in assay [1] was “bind strongly”. Further, the effectiveness of compound entry in the assay with NK T cells was “Particularly effective”.
